According to patent US20250162973A1, “METHODS OF SYNTHESIS AND USES OF AGRIMOL COMPOUNDS” (Versitech Limited, priority 2022, published 2025):

Experiments:
CS = biological target: T1, CS (Homo sapiens, UniProt O75390); experiment: Tryptophan fluorescence quenching assay; assay type: binding
T1 sequence (O75390 28-466): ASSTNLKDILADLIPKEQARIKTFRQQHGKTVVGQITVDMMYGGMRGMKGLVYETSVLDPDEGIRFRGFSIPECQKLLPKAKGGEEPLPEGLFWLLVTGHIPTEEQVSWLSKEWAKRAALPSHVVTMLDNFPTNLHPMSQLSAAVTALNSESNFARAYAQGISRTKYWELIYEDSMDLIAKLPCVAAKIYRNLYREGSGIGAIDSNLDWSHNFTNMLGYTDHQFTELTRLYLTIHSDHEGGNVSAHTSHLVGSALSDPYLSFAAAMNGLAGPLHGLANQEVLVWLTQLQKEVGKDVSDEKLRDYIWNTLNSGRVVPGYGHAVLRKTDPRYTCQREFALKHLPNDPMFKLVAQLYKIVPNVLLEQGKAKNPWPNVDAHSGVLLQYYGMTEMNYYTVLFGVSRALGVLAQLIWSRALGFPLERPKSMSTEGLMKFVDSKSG
Experimental: FIG. 5A is a volcano plot (ΔTm, p-value) for TPP data obtained from NCI-H460 cells with 4 μM AGB treatment for 1 h. The criteria were set as ΔTm>2° C. and p<0.05. FIG. 5B is a graph showing results of the tryptophan fluorescence quenching assay for the direct interaction between AGB and three target proteins. Upper, tryptophan fluorescence titration of recombinant proteins with AGB. […] For CS, its fluorescence decrease was saturated when AGB concentrations increased to about 32 μM. Lower, the normalized tryptophan intensities at an emission of 320 nm were plotted as a function of total added concentration of AGB. The dissociation constants (Kd) between AGB and three proteins were then calculated by fitting this plot with Stern-Volmer Equation. […] The fluorescence intensity was presented as percentage relative to control groups. […]
To further examine whether AGB interacts directly with the above three identified proteins, the intrinsic tryptophan fluorescence properties of these proteins were examined in the presence of AGB at different concentrations. Upon binding with AGB, proteins experience a change of the tryptophan environment, which can be visualized by fluorescence spectroscopy. As shown in FIG. 5B the tryptophan fluorescence of three proteins were all quenched by AGB in a concentration-dependent manner.

NCI-H460 cells = experiment: Wound healing assay (cell migration); assay type: cell-based, human
Experimental: For wound healing assay in the present study, the cells were grown to approximately 80% confluence in 12-well plates in the complete growth medium and then a straight line was scraped at the central part of the each well by a 200 μL pipette tip. […] […] Each condition was performed in triplicate.

[1] = system: cancer stem cells (NCI-H460 tumorspheres); experiment: MTT assay on tumorspheres (cancer stem cells); assay type: cell-based; conditions: Homo sapiens, 72-h treatment
Experimental: For IC50 determination of sphere, similar procedures were performed as mentioned above. Briefly, cells were plated in 96-well clear flat bottom ultra-low attachment cell culture plates (Corning®) with a density of 5*10^3 cells into each well with specific sphere formation medium (DMEM/F12 medium supplemented with 20 ng/mL EGF, 20 ng/mL bFGF, 2% B27). The cells were then treated with AGB at different concentrations, ranging from 0.3 to 100 μM. After 3 days of treatment, the formed tumorspheres in each well were monitored under microscope. The MTT was then applied to determine the cell viability and the cell viability of AGB-treatment group was calculated via normalization to control groups and the IC50 value was calculated from the plot curve that fitted to a Boltzmann sigmoidal function.

[2] = system: U2OS cells transfected with mitochondrial-RFP reporter gene; experiment: Time-lapse microscopy of mitochondrial morphology; assay type: cell-based, human; conditions: 30 hour, 4 μM AGB treatment
Experimental: Another cluster highlighted in the ProTargetMiner analysis was related to mitochondrial translation and respiration function. Time-lapse microscopy was used to monitor the changes of mitochondrial morphology during a 30 hour, 4 μM AGB treatment using U2OS cells transfected with mitochondrial-RFP reporter gene (data not shown). AGB indeed triggers dynamic changes of mitochondria. As shown in the movie recorded using time-lapse microscopy (data not shown), about 5 hours after the start of the imaging, mitochondria changed to a thread-like, very elongated morphology. Then the threads slowly broke up. At about 10 h, the mitochondria became small dots and these dots got brighter. At the end of the movie (about 30 h treatment), some cells underwent mitochondrial outer membrane permeabilization (the abrupt loss of fluorescence in mitochondria) and died.

HSP60 = HSP60 (Homo sapiens, UniProt P10809); experiment: MDH refolding assay (chaperone function); assay type: biochemical; conditions: pre-incubation of Hsp60 with AGB
Chain of HSP60 (P10809 27-573): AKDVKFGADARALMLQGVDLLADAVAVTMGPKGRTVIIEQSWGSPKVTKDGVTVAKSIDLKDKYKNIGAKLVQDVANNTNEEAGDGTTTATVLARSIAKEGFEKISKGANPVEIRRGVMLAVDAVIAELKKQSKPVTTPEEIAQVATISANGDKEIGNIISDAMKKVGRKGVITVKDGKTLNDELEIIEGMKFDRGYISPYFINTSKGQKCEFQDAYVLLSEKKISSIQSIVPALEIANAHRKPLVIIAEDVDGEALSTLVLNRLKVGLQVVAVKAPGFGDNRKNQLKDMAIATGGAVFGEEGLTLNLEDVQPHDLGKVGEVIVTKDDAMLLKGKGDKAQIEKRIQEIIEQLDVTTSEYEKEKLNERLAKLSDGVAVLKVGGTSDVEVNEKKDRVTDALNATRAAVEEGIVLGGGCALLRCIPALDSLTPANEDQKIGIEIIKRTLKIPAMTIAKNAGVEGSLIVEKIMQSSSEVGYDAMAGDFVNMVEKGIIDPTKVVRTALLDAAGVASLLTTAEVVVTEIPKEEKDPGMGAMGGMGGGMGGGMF
Description: The function of HSP60 is mainly for its chaperone activity. HSP60 cooperates with co-chaperonin HSP10 to perform the misfolded proteins refolding and reactivate. Mitochondrial malate dehydrogenase (MDH), one of HSP60 substrates, was examined for the inhibition of chaperone function by AGB.

CCCC(=O)c1c(O)c(Cc2c(O)c(Cc3c(O)c(C)c(OC)c(C(=O)CCC)c3O)c(O)c(C(=O)[C@@H](C)CC)c2O)c(O)c(C)c1OC [AGB, Agrimol B]
Kd (CS; Stern-Volmer analysis, read-out: Kd of AGB binding to CS): 4.9 µM | AGB concentration at which the CS fluorescence decrease was saturated (CS; tryptophan fluorescence titration): about 32 μM | width of the scratch wound (NCI-H460 cells; 1 μM of AGB): significantly decreased | wound closure (NCI-H460 cells; 4 μM or 10 μM of AGB, 16 h and 32 h): wound closure was inhibited | concentration giving significant reduction of cell migration (NCI-H460 cells; wound healing assay): around 4 μM | IC50 [1]: 4 µM | mitochondrial morphology [2]: cells underwent a mitochondrial fission | MDH refolding activities (HSP60): concentration-dependent inhibition
